Source: the NIST ThermoML archive (doi:10.1016/j.fluid.2012.03.002)
Numbers after ± are expanded uncertainties.

Tests used:
[1] = Crystal; DTA
[2] = Molar enthalpy of transition or fusion; conditions: Crystal; DSC

Normal melting temperature [1]: 31.50 ± 0.7 °C | Molar enthalpy of transition or fusion [2]: 13 ± 0.263 kcal/mol
SMILES: C=CC(=O)Oc1cccc(CCCCCCCCCCCCCCC)c1 [3-pentadecylphenyl acrylate]
